Active and inactive are the calls of the source. The rule behind the calls is not given here.
Key:
[1] = Cytotoxicity against human MCF10A cells after 72 hrs by MTT assay; format: cell-based; settings: mcf-10a
MCF7 = assay: Cytotoxicity against human MCF7 cells expressing estrogen and progesterone receptor after 72 hrs by MTT assay; format: functional, cell-based
MDA-MB-231 = assay: Cytotoxicity against estrogen receptor-deficient human MDA-MB-231 cells after 72 hrs by MTT assay; format: functional, cell-based; settings: MDA-MB-231, 72 h
[2] = target: Transcription factor p65 (Homo sapiens) (UniProt Q04206); assay: Reduction of NFkappaB p65 expression in estrogen receptor-deficient human MDA-MB-231 cells at 5 uM after 72 hrs by Western blot analysis; format: cell-based
Transcription factor p65 (Homo sapiens), sequence (Q04206 whole entry): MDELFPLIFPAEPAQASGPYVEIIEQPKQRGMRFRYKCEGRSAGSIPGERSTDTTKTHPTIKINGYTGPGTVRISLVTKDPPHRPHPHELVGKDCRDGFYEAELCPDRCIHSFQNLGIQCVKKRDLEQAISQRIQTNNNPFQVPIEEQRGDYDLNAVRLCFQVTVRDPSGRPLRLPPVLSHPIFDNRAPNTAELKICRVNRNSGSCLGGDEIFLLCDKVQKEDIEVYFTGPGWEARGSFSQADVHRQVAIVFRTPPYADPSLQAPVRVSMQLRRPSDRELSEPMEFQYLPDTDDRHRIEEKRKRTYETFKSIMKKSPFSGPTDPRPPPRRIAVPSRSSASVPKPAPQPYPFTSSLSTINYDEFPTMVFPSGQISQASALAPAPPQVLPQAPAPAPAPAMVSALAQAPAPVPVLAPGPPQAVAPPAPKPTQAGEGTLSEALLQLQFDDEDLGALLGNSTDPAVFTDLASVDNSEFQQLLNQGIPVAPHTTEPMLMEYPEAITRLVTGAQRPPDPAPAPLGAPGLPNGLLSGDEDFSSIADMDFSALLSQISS

| Activity [2] | Compound | Activity [1] | Activity (MCF7) | IC50 (MDA-MB-231) |
| --- | --- | --- | --- | --- |
| – | CC(=O)N/N=C1\C=C(C)C(=O)c2cccc(O)c21 | Non-toxic | Active | – |
| – | CC1=CC(=O)c2c(O)cccc2C1=O | – | Active | – |
| Active | CC1=C/C(=N\NC(=O)Cc2c[nH]c3ccccc23)c2c(O)cccc2C1=O | Non-toxic | Active | 1500 nM |
| – | CC1=C/C(=N\NC(N)=S)c2c(O)cccc2C1=O | Non-toxic | Active | – |
| Active | CC1=C/C(=N\NC(=O)c2cc3ccccc3cc2O)c2c(O)cccc2C1=O | Non-toxic | Active | 3200 nM |
